Laboratory results published in patent US10870647B2, “Imidazopyridine derivative, method for preparing same, and pharmaceutical composition containing same as active ingredient for preventing or treating cancer” (DAEGU-GYEONGBUK MEDICAL INNOVATION FOUNDATION, priority 2016, dated 2020).

Columns and labels:
Assay in all cases: Kinase selectivity, scanMAX Kinase assay panel (DiscoverX), % control at 1 uM
Format in all cases: binding
[1] = biological target: T1, scanMAX Kinase assay panel (Homo sapiens, UniProt O15264); conditions: p38-delta; 1 uM; read-out: Percent Control (%)
T1 construct: purchased DiscoverX
T1 sequence (O15264 1-365): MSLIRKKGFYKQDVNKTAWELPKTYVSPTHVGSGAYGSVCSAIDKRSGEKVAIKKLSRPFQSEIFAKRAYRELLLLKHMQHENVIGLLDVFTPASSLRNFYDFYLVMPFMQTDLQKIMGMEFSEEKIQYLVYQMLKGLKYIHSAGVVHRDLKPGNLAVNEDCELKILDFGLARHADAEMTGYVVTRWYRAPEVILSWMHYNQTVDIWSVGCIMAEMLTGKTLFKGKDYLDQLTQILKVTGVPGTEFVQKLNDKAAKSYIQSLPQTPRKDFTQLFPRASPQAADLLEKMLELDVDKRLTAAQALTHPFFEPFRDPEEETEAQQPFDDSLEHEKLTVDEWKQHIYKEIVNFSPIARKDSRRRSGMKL
Method in brief: (§1)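 Single-point screen at 1 uM compound in DMSO. Lower % control means stronger inhibition, with the cutoff for activity set at <35%.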

[2] = biological target: T2, scanMAX Kinase assay panel (Homo sapiens, UniProt Q15746); conditions: MYLK; 1 uM; read-out: Percent Control (%)
T2 construct: purchased DiscoverX
Method in brief: as §1

[3] = biological target: T3, scanMAX Kinase assay panel (Homo sapiens, UniProt P53355); conditions: DAPK1; 1 uM; read-out: Percent Control (%)
T3 construct: purchased DiscoverX
Method in brief: as §1

[4] = biological target: T4, scanMAX Kinase assay panel (Homo sapiens, UniProt O14920); conditions: IKK-beta; 1 uM; read-out: Percent Control (%)
T4 construct: purchased DiscoverX
T4 sequence (O14920 1-756): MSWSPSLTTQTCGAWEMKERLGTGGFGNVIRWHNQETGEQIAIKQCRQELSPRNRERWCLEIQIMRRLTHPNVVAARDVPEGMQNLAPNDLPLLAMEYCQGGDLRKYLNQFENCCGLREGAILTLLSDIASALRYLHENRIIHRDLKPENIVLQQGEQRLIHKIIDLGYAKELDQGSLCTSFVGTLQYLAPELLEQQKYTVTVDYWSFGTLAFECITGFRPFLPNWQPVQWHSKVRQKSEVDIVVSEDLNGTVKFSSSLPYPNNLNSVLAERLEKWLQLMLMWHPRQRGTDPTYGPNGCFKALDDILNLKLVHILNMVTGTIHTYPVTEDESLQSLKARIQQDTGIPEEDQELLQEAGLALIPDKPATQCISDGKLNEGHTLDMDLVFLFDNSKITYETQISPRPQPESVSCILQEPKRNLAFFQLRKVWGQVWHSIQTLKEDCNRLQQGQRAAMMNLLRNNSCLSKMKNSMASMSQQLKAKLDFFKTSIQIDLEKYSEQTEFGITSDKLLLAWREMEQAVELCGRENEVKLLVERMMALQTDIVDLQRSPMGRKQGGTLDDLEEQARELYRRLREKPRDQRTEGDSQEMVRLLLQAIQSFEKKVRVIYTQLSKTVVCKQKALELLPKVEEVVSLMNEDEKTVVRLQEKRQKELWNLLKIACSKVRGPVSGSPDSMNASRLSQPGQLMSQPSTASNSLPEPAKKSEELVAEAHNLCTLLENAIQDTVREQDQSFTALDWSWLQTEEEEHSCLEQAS
Method in brief: as §1

[5] = biological target: T5, scanMAX Kinase assay panel (Homo sapiens, UniProt Q9UM73, C1156Y); conditions: ALK (C1156Y); 1 uM; read-out: Percent Control (%)
T5 construct: purchased DiscoverX
T5 sequence (Q9UM73 19-1620 C1156Y): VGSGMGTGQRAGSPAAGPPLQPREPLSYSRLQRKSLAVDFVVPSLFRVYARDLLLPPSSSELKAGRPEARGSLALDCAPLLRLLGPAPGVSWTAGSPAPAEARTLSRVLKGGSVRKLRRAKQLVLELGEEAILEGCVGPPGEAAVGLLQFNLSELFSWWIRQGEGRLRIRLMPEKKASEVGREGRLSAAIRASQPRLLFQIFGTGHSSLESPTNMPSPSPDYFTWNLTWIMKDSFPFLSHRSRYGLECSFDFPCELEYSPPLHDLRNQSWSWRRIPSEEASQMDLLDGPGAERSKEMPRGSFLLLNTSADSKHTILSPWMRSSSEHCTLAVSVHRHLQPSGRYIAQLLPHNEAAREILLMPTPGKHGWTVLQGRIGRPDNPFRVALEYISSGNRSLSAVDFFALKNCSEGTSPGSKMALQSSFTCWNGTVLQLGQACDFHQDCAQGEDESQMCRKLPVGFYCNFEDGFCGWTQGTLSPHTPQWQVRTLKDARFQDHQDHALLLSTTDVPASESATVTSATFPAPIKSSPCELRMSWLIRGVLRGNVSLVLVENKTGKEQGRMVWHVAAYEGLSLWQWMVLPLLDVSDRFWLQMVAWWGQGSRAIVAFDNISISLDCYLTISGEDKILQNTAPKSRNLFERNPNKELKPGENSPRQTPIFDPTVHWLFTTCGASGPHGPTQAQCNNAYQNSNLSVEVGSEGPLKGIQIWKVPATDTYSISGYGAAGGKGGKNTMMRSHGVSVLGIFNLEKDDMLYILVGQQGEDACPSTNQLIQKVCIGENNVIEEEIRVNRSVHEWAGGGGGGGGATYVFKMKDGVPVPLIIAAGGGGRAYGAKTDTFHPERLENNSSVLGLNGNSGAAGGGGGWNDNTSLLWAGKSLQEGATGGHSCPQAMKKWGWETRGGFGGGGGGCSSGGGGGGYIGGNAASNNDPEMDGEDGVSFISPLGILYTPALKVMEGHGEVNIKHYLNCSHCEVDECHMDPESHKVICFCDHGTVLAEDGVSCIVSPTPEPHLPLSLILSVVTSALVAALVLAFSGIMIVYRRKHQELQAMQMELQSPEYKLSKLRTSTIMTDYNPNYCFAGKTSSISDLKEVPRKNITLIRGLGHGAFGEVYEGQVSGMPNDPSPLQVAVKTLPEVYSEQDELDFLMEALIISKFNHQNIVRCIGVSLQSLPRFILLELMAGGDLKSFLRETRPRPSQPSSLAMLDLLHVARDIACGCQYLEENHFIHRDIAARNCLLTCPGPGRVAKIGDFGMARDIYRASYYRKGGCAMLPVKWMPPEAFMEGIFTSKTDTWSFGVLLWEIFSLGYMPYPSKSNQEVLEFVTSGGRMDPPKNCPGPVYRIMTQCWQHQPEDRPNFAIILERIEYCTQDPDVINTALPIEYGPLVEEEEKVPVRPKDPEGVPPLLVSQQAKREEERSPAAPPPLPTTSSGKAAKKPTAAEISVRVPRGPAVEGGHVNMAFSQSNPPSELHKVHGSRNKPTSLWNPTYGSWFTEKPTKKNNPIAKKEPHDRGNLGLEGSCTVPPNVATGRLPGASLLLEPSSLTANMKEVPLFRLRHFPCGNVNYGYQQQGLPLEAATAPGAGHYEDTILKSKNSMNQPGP
Method in brief: as §1

[6] = biological target: T6, scanMAX Kinase assay panel (Homo sapiens, UniProt Q7KZI7); conditions: MARK2; 1 uM; read-out: Percent Control (%)
T6 construct: purchased DiscoverX
T6 sequence (Q7KZI7 whole entry): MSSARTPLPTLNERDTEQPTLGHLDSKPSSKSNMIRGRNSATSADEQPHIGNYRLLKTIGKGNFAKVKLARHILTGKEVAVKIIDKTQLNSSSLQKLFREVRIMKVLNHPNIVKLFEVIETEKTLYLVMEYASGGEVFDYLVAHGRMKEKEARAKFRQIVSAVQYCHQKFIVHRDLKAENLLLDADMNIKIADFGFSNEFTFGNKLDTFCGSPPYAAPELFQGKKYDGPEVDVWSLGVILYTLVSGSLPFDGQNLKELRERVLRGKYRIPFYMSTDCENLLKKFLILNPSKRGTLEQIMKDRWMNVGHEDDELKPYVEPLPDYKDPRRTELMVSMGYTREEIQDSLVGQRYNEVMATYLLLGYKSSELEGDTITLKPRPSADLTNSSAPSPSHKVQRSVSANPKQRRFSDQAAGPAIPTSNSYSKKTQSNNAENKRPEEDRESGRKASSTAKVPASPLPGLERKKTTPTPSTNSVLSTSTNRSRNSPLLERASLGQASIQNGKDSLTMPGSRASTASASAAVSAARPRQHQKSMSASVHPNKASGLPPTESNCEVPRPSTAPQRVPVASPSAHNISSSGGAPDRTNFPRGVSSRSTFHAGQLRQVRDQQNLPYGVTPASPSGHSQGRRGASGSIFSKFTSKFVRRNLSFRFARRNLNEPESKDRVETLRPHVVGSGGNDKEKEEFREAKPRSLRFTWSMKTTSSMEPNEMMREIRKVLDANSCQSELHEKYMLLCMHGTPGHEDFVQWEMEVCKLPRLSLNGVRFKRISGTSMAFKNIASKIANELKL
Method in brief: as §1

[7] = biological target: T7, scanMAX Kinase assay panel (Homo sapiens, UniProt Q96PN8); conditions: TSSK3; 1 uM; read-out: Percent Control (%)
T7 construct: purchased DiscoverX
T7 sequence (Q96PN8 1-268): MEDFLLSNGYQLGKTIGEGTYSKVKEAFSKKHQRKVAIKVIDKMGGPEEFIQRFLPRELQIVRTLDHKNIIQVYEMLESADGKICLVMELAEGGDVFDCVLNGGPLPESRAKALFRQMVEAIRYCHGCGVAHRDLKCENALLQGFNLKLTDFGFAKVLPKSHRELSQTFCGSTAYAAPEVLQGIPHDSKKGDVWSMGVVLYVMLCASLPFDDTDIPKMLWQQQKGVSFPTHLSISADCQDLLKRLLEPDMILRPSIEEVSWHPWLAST
Method in brief: as §1

[8] = biological target: T8, scanMAX Kinase assay panel (Homo sapiens, UniProt P00533, L858R/T790M); conditions: EGFR (L858R, T790M); 1 uM; read-out: Percent Control (%)
T8 construct: purchased DiscoverX
T8 sequence (P00533 25-1210 T790M/L858R): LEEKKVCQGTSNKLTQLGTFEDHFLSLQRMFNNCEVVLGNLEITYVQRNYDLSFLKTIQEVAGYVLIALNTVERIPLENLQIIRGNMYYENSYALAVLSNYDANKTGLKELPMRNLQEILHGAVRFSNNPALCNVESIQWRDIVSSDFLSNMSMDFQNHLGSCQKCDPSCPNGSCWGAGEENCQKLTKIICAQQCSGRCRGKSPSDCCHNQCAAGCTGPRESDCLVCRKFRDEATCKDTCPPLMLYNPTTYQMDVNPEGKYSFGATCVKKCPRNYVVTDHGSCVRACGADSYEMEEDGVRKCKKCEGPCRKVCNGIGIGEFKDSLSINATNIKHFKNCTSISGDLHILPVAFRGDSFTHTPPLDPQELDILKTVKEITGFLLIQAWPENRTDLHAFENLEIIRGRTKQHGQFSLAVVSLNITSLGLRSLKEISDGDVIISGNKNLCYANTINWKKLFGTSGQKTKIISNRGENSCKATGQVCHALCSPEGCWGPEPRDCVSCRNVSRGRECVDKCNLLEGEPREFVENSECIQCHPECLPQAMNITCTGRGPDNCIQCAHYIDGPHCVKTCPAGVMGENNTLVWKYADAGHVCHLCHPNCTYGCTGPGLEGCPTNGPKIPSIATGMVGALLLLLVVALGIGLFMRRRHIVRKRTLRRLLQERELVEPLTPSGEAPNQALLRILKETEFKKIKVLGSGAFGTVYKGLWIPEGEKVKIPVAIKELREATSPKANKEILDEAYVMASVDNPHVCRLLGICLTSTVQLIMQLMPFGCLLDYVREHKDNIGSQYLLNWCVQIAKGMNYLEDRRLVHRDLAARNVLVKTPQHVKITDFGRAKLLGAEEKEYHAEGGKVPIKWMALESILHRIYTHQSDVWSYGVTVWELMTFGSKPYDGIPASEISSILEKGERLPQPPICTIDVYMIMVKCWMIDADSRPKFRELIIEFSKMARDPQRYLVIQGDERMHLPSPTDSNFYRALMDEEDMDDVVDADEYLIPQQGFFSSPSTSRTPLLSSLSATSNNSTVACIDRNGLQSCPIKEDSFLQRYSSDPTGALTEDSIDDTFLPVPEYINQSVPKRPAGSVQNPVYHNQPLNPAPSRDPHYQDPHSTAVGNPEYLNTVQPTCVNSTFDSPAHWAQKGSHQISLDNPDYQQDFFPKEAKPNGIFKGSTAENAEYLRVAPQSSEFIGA
Method in brief: as §1

[9] = biological target: T9, scanMAX Kinase assay panel (Homo sapiens, UniProt Q9H2G2); conditions: SLK; 1 uM; read-out: Percent Control (%)
T9 construct: purchased DiscoverX
T9 sequence (Q9H2G2 whole entry): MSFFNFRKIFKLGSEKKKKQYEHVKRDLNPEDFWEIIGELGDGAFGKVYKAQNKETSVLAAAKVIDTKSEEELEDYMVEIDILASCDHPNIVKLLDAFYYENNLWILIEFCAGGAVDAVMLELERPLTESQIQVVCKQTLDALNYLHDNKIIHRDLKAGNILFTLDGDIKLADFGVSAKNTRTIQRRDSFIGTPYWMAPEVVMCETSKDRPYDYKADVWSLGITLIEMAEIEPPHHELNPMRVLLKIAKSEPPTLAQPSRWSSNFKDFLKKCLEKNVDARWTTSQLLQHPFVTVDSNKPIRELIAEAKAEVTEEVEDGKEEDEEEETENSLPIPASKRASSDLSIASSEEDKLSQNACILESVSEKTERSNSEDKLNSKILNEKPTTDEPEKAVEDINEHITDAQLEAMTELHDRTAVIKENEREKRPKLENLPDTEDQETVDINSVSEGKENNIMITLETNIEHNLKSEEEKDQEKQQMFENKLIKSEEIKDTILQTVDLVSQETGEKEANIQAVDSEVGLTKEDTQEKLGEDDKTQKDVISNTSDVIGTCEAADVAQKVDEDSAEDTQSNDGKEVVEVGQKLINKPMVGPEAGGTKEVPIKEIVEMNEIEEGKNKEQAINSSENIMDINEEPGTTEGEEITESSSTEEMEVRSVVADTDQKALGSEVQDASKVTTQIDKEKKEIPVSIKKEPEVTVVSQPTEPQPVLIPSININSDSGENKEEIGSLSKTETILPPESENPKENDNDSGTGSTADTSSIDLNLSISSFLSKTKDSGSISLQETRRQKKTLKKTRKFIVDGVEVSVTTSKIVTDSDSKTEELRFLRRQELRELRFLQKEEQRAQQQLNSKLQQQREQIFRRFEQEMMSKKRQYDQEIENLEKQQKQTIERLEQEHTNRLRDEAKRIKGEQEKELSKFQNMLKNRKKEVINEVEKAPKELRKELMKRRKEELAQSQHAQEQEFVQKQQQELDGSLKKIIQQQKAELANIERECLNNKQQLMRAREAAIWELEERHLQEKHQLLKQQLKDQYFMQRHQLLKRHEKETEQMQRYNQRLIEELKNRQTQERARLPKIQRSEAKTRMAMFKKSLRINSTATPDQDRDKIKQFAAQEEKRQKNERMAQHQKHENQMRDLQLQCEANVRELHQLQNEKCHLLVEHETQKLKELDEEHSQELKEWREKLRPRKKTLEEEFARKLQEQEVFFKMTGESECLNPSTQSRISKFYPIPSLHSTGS
Method in brief: as §1

Row | Compound | remaining binding at 1 µM [1] [%] | remaining binding at 1 µM [2] [%] | remaining binding at 1 µM [3] [%] | remaining binding at 1 µM [4] [%] | remaining binding at 1 µM [5] [%] | remaining binding at 1 µM [6] [%] | remaining binding at 1 µM [7] [%] | remaining binding at 1 µM [8] [%] | remaining binding at 1 µM [9] [%]
1 | Cc1ccc(NC(=O)C2(C(=O)Nc3ccc(F)cc3)CC2)cc1C#Cc1cnc2c(Nc3cnn(C(C)C)c3)cccn12 [Example 78] | 100 | 100 | 98 | 100 | 100 | 89 | 100 | 84 | 11
2 | Cc1cn(-c2cc(NC(=O)c3ccc(C)c(C#Cc4cnc5c(Nc6cnn(C)c6)cccn45)c3)cc(C(F)(F)F)c2)cn1 [Example 12, 4-methyl-N-(3-(4-methyl-1H-imidazol-1-yl)-5-(trifluoromethyl)phenyl)-3-((8-((1-methyl-1H-pyrazol-4-yl)amino)imidazo[1,2-a]pyridin-3-yl)ethynyl)benzamide] | 78 | 100 | 80 | 39 | 100 | 99 | 100 | 69 | 5
3 | Cc1ccc(C(=O)Nc2ccc(CN3CCN(C)CC3)c(C(F)(F)F)c2)cc1C#Cc1cnc2c(Nc3cnn(C)c3)cccn12 [Example 1, 4-methyl-3-((8-((1-methyl-1H-pyrazol-4-yl)amino)imidazo[1,2-a]pyridin-3-yl)ethynyl)-N-(4-((4-methylpiperazin-1-yl)methyl)-3-(trifluoromethyl)phenyl)benzamide] | 16 | 64 | 87 | 3 | 76 | 73 | 95 | 17 | 0
